{"source": "patent US11518981B2", "about": "“Methods of enhancing engraftment activity of hematopoietic stem cells” (CHILDREN'S HOSPITAL MEDICAL CENTER, priority 2017, dated 2022)", "key": {"[1]": {"test_system": "human CD34^+ cells", "assay": "GFP marking in human grafts of NSG mice", "type": "in vivo", "conditions": "limiting dilution transplant; also long-termed secondary human grafts", "description": "NOD.Cg-Prkdcscid Il2rgtm1Wjl/SzJ (NSG) mice were purchased from The Jackson Laboratory (Bar Harbor, Me.). All animals were bred and maintained in a specific pathogen-free environment and all experiments were approved by the Institutional Animal Care and Use (IACUC) Committee. Male and female NSG mice aged 8 to 14 weeks old were fed doxycycline chow (TestDiet; Modified Prolab RMH-1500 with 0.0625% doxycycline) a week prior to, during and for 2 weeks post irradiation. Human engraftment was analyzed in bone marrow (BM), via BM aspirates performed at 6 and 12 weeks from left and right femurs. After sacrifice at 24 weeks, marrow from all of the primary mice (1 T) was harvested. Peripheral blood analysis was also performed in some experiments. Secondary transplants (2 T) were performed after mouse CD45^+ cells were depleted from BM harvested from each 1 T mouse separately, using Biotin Rat Anti-Mouse CD45 (BD Biosciences 553078) and Streptavidin Particles Plus-DM (BD Biosciences 557812) and injected into one irradiated (280 cGy) secondary NSG mouse. […] Total ROS and mitochondrial specific ROS were detected using 10 μM CM-H2DCFDA (ThermoFisher Scientific C6827) and 5 μM MITOSOXTM Red (Red Mitochondrial Superoxide Indicator) (ThermoFisher Scientific M36008) respectively, following manufacturer's instructions."}, "[2]": {"test_system": "γH2AX", "assay": "DNA damage response (γH2AX, 53BP1) by immunofluorescence and flow cytometry", "type": "cell-based, human", "procedure": "For EdU incorporation assay, cells were incubated with 10 μM EdU throughout the culture period and the CLICK-IT® Plus EdU Pacific Blue Flow Cytometry Assay Kit (ThermoFisher Scientific C10636) was used for staining. […] Samples were run through a FACSCANTOTM, FORTESSATM, or LSR 2 flow cytometers (BD Biosciences), and the data was analyzed by […] software (BD). […] II cell sorter. FACS sorted CD34+38-90+ cells were fixed in 2% paraformaldehyde and permeabilized using 0.1% […] polyether alcohol, Sigma-Aldrich). […] Cells were counterstained and mounted with […]® antifade mounting medium with DAPI (H-1200 Vector Laboratories). Images were obtained using a Nikon 90i upright microscope."}, "[3]": {"test_system": "human MPB derived CD34^+ cells", "assay": "long term repopulating potential (LTRP) in secondary transplanted (2 T) NSG mice", "type": "in vivo", "conditions": "CD34^+ cells cultured 36-42 h and 72-96 h; 6 weeks post 2 T", "description": "NOD.Cg-Prkdcscid Il2rgtm1Wjl/SzJ (NSG) mice were purchased from The Jackson Laboratory (Bar Harbor, Me.). All animals were bred and maintained in a specific pathogen-free environment and all experiments were approved by the Institutional Animal Care and Use (IACUC) Committee. Male and female NSG mice aged 8 to 14 weeks old were fed doxycycline chow (TestDiet; Modified Prolab RMH-1500 with 0.0625% doxycycline) a week prior to, during and for 2 weeks post irradiation. Human engraftment was analyzed in bone marrow (BM), via BM aspirates performed at 6 and 12 weeks from left and right femurs. After sacrifice at 24 weeks, marrow from all of the primary mice (1 T) was harvested. Peripheral blood analysis was also performed in some experiments. Secondary transplants (2 T) were performed after mouse CD45^+ cells were depleted from BM harvested from each 1 T mouse separately, using Biotin Rat Anti-Mouse CD45 (BD Biosciences 553078) and Streptavidin Particles Plus-DM (BD Biosciences 557812) and injected into one irradiated (280 cGy) secondary NSG mouse. For calculating competitive repopulating units (CRU) from limiting dilution transplantation, the L-CALC^TM software (Stem Cell Technologies) was used. All of the mice used for this study were randomly assigned to a treatment group. No animals were excluded from the analysis."}}, "data": [{"smiles": "Cc1ccc(-n2nc(C(C)(C)C)cc2NC(=O)Nc2ccc(OCCN3CCOCC3)c3ccccc23)cc1", "note": "[p38i, 1-[5-tert-butyl-2-(4-methylphenyl)pyrazol-3-yl]-3-[4-(2-morpholin-4-ylethoxy)naphthalen-1-yl]urea]", "values": [{"measurement": "GFP marking", "setting": "[1]", "result": "did not have any effect"}, {"measurement": "γH2AX levels in the transduced HSCs", "setting": "[2]; 72 h, RV transduced cycling HSCs", "result": "significantly reduced"}, {"measurement": "percentage of γH2AX^+ cells", "setting": "[2]; flow cytometry, 36-42 h and 72-96 h groups", "result": "significantly reduced"}, {"measurement": "γH2AX MFI and number of γH2AX positive HSC", "setting": "[2]; flow cytometry, 24 h", "result": "returned to levels seen in unmanipulated HSCs"}, {"measurement": "LTRP in 2 T mice", "setting": "[3]", "result": "restored the LTRP in 2 T mice to levels seen with unmanipulated HSPCs"}]}]}
